Results reported in US20260014179A1, “OLIGOSACCHARIDE COMPOSITION FOR USE IN THE REDUCTION OF THE LEVEL OF BRANCHED SHORT CHAIN FATTY ACIDS” (priority 2022, published 2026).

Tested on: microbiota present in the faecal samples
Assay: Oligosaccharide distribution (HPAEC-PAD peak areas) during faecal fermentation
Description: HPAEC-PAD (high performance anion exchange chromatography) equipped with a PA-1 column was used for separation of mono- and oligosaccharides of the different samples. Efforts were made to achieve a separation quality described in van Leeuwen et al., Carbohydrate Research 2016, 425, 48-58. […] The samples as used for GPC were 100-fold diluted with DMSO before injection.
The distribution of oligosaccharides in the mixtures was also monitored over this time period using the method described above in relation to Table 2.

Peak areas (in Comp. Ex. 1, 0 h)	Peak areas (in Comp. Ex. 1, 6 h, Donor A)	Peak areas (in Comp. Ex. 1, 6 h, Donor B)	Peak areas (in Comp. Ex. 1, 6 h, Donor C)	Peak areas (in Comp. Ex. 1, 24 h, Donor A)	Peak areas (in Comp. Ex. 1, 24 h, Donor B)	Peak areas (in Comp. Ex. 1, 24 h, Donor C)	Peak areas (in Comp. Ex. 1, 48 h, Donor A)	Peak areas (in Comp. Ex. 1, 48 h, Donor B)	Peak areas (in Comp. Ex. 1, 48 h, Donor C)	Peak areas (in Example 2, 0 h)	Peak areas (in Example 2, 6 h, Donor A)	Peak areas (in Example 2, 6 h, Donor B)	Peak areas (in Example 2, 6 h, Donor C)	Peak areas (in Example 2, 24 h, Donor A)	Peak areas (in Example 2, 24 h, Donor B)	Peak areas (in Example 2, 24 h, Donor C)	Peak areas (in Example 2, 48 h, Donor A)	Peak areas (in Example 2, 48 h, Donor B)	Peak areas (in Example 2, 48 h, Donor C)	Compound
0.5	2.4	45.1	0.7	0.0	0.1	0.0	0.0	0.0	0.0	1.3	2.1	47.3	0.8	0.0	0.1	0.0	0.0	0.0	0.0	O=C[C@H](O)[C@@H](O)[C@@H](O)[C@H](O)CO [Galactose]
19.5	2.9	34.1	0.2	0.0	0.1	0.0	0.0	0.0	0.0	17.5	2.6	26.9	0.3	0.0	0.0	0.0	0.0	0.0	0.0	O=C[C@H](O)[C@@H](O)[C@H](O)[C@H](O)CO [Glucose]

Compound	Peak areas (in Comp. Ex. 1, 0 h)	Peak areas (in Comp. Ex. 1, 6 h, Donor A)	Peak areas (in Comp. Ex. 1, 6 h, Donor B)	Peak areas (in Comp. Ex. 1, 6 h, Donor C)	Peak areas (in Comp. Ex. 1, 24 h, Donor A)	Peak areas (in Comp. Ex. 1, 24 h, Donor B)	Peak areas (in Comp. Ex. 1, 24 h, Donor C)	Peak areas (in Comp. Ex. 1, 48 h, Donor A)	Peak areas (in Comp. Ex. 1, 48 h, Donor B)	Peak areas (in Comp. Ex. 1, 48 h, Donor C)	Peak areas (in Example 2, 0 h)	Peak areas (in Example 2, 6 h, Donor A)	Peak areas (in Example 2, 6 h, Donor B)	Peak areas (in Example 2, 6 h, Donor C)	Peak areas (in Example 2, 24 h, Donor A)	Peak areas (in Example 2, 24 h, Donor B)	Peak areas (in Example 2, 24 h, Donor C)	Peak areas (in Example 2, 48 h, Donor A)	Peak areas (in Example 2, 48 h, Donor B)	Peak areas (in Example 2, 48 h, Donor C)
OC[C@H]1O[C@@H](O[C@H]2[C@H](O)[C@@H](O)C(O)O[C@@H]2CO)[C@H](O)[C@@H](O)[C@H]1O (stereo partly drawn) [Lactose]	48.4	0.7	1.9	0.4	0.4	0.5	0.4	0.3	0.5	0.3	30.9	0.3	5.3	0.6	0.3	0.4	0.4	0.3	0.5	0.3
